Earlier results in patent US8278066B2, “Truncated somatostatin receptors” (Board of Regents, The University of Texas System, priority 2001, dated 2012).

Biological target: SSTR2 (Homo sapiens, UniProt P30874)
Settings: reported by Reisine et al. 1993; Raynor et al. 1993; cited from earlier work

Sequence of SSTR2 (P30874 whole entry, species assumed): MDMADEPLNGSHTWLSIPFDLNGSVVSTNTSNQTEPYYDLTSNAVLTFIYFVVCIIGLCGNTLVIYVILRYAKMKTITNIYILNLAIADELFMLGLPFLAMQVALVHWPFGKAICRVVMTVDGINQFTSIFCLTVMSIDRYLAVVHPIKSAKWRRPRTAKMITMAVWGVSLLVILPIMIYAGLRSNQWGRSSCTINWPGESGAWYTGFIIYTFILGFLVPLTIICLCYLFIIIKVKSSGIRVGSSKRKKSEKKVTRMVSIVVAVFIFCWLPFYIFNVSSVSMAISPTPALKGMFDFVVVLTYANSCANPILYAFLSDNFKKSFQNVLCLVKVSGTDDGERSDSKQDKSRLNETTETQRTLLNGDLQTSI

In the case of C[C@@H](O)[C@@H]1NC(=O)[C@H](CCCCN)NC(=O)[C@@H](Cc2c[nH]c3ccccc23)NC(=O)[C@H](Cc2ccccc2)NC(=O)[C@@H](NC(=O)[C@H](N)Cc2ccccc2)CSSC[C@@H](C(=O)N[C@H](CO)[C@@H](C)O)NC1=O [octreotide], the Receptor saturation is listed as 100 nM.
